The experiment deals with diaphorase. Briefly: fluorescently labeled diaphorase binding to peptide array with or without excess FAD. The conditions noted are these: for Meas. ratio: ratio without/with FAD calculated from measured binding values; for Meas. ratio / 1 microM noFAD/FAD: 1 micromolar diaphorase; for 1 microM FAD (array fluorescence of bound diaphorase) / 1 micro no FAD (array fluorescence of bound diaphorase): 1 micromolar labeled diaphorase; for 1 microM FAD (array fluorescence of bound diaphorase) / 10 microM FAD (array fluorescence of bound diaphorase): excess FAD present; for 1 microM FAD (array fluorescence of bound diaphorase) / 1 micro no FAD (array fluorescence of bound diaphorase) / 10 microM FAD (array fluorescence of bound diaphorase) / 10 microM no FAD (array fluorescence of bound diaphorase): 65535 is detector saturation; for 10 microM FAD (array fluorescence of bound diaphorase) / 10 microM no FAD (array fluorescence of bound diaphorase): 10 micromolar labeled diaphorase; for 1 microM noFAD/FAD / 10 microM noFAD/FAD: ratio of binding without FAD to binding with FAD; for 10 microM noFAD/FAD: 10 micromolar diaphorase. The method, then:
Measurements were performed in which diaphorase was bound to an array of about 126,000 unique sequences. The sequences were chosen simply to cover sequence space. 16 of the natural 20 amino acids were used to make up these sequences with C, I, M and T omitted. The diaphorase was fluorescently labeled and each peptide sequence feature was scanned and fluorescence recorded on the array. Diaphorase bound tightly to some peptides and not at all to others. Two different concentrations of diaphorase were used, 1 and 10 micromolar, and the diaphorase was either bound in the presence of excess FAD or not. […] Indeed the Pearson correlation coefficient between w/ and w/o FAD was >0.97, which actually speaks to the reproducibility of this dataset. However, there are some differences as shown on the scatter plot of FIG. 1. When one takes a ratio of the binding without FAD and the binding with FAD, one finds the following top 30 ratios (Table 1): Note that all these sequences end with a GSG linker sequence. Because there are two concentrations, one can easily check for consistency. Note that 65535 is detector saturation, so one has to ignore those values. For this reason, the lower concentration is used most of the time. […] It appears that this was some kind of error and was ignored in subsequent analysis. A similar conclusion can be made with the 7th highest value. Looking at the sequences, RW or at least R or K followed by a nonpolar or aromatic amino acid at the N-terminus. This is interesting as FAD is negatively charged, though the adenine in FAD looks a bit like tryptophan (see FIG. 2).

On to AWVELEYQYVFEG, for which the Meas. ratio was 0.74.
Take “KEAPGPRFGGSG [array peptide with C-terminal GSG linker]”: the “1 microM FAD (array fluorescence of bound diaphorase)” value worked out at 8281.5, the “1 micro no FAD (array fluorescence of bound diaphorase)” value came out at 1071.25, the “10 microM FAD (array fluorescence of bound diaphorase)” value was 5467.5 and the “10 microM no FAD (array fluorescence of bound diaphorase)” value was 5614.5. The “1 microM noFAD/FAD” value is 0.1294, the “10 microM noFAD/FAD” value is 1.027 and the Meas. ratio was 0.13.
Consider “RYYPAFSGGSG [array peptide with C-terminal GSG linker]”, for which the “1 microM FAD (array fluorescence of bound diaphorase)” value was found to be 7535.25, the “1 micro no FAD (array fluorescence of bound diaphorase)” value stood at 21898, the “10 microM FAD (array fluorescence of bound diaphorase)” value came out at 65535 and the “10 microM no FAD (array fluorescence of bound diaphorase)” value was found to be 65535. In addition, the “1 microM noFAD/FAD” value is on record as 2.906, the “10 microM noFAD/FAD” value is 1 and the Meas. ratio was 2.91.
On to DYFEGQLNHLGGS, for which the Meas. ratio is given as 0.75.
Regarding “LKQLFLEGGSG [array peptide with C-terminal GSG linker]”, the “1 microM FAD (array fluorescence of bound diaphorase)” value is on record as 2474.5, the “1 micro no FAD (array fluorescence of bound diaphorase)” value amounted to 1559.25, the “10 microM FAD (array fluorescence of bound diaphorase)” value stood at 23548.25 and the “10 microM no FAD (array fluorescence of bound diaphorase)” value stood at 8696.5. For the same sequence, the “1 microM noFAD/FAD” value is on record as 0.6301, the “10 microM noFAD/FAD” value turned out to be 0.3693 and the Meas. ratio is listed as 0.63.
With “AFYGLELGGSG [array peptide with C-terminal GSG linker]”, the “1 microM FAD (array fluorescence of bound diaphorase)” value is 4182.5, the “1 micro no FAD (array fluorescence of bound diaphorase)” value is 2264.25, the “10 microM FAD (array fluorescence of bound diaphorase)” value is recorded as 36729 and the “10 microM no FAD (array fluorescence of bound diaphorase)” value is given as 16544. Besides, the “1 microM noFAD/FAD” value worked out at 0.5414, the “10 microM noFAD/FAD” value was found to be 0.4504 and the Meas. ratio is on record as 0.54.
On to “WRPFWKNLGGSG [array peptide with C-terminal GSG linker]”, for which the Meas. ratio is on record as 2.18.
As for “NRKFYWNAGGSG [array peptide with C-terminal GSG linker]”, the Meas. ratio is given as 2.10.
As to “YRFAQYKGQKDGSG [array peptide with C-terminal GSG linker]”, the “1 microM FAD (array fluorescence of bound diaphorase)” value is 1604.25, the “1 micro no FAD (array fluorescence of bound diaphorase)” value is 4467.75, the “10 microM FAD (array fluorescence of bound diaphorase)” value is on record as 19933.75 and the “10 microM no FAD (array fluorescence of bound diaphorase)” value is recorded as 56915. Besides, the “1 microM noFAD/FAD” value is listed as 2.785, the “10 microM noFAD/FAD” value is given as 2.855 and the Meas. ratio is 2.78.
Turning to “RWRYYWKSEGSG [array peptide with C-terminal GSG linker]”, the “1 microM FAD (array fluorescence of bound diaphorase)” value amounted to 4093.5, the “1 micro no FAD (array fluorescence of bound diaphorase)” value is listed as 11043, the “10 microM FAD (array fluorescence of bound diaphorase)” value stood at 51412.25 and the “10 microM no FAD (array fluorescence of bound diaphorase)” value was 65535. Besides, the “1 microM noFAD/FAD” value was found to be 2.698, the “10 microM noFAD/FAD” value was determined as 1.275 and the Meas. ratio was 2.70.
Consider “VKDGNKHYWRVSGSG (VKDGANKHYWRVSGSG) [array peptide with C-terminal GSG linker]”, for which the “1 microM FAD (array fluorescence of bound diaphorase)” value is 12347.25, the “1 micro no FAD (array fluorescence of bound diaphorase)” value was determined as 2221, the “10 microM FAD (array fluorescence of bound diaphorase)” value was 17803.5 and the “10 microM no FAD (array fluorescence of bound diaphorase)” value is recorded as 20355.75. Moreover, the “1 microM noFAD/FAD” value was 0.1799, the “10 microM noFAD/FAD” value was 1.143 and the Meas. ratio was 0.18.
“RQYQKHSYAKFSGSG [array peptide with C-terminal GSG linker]”: the “1 microM FAD (array fluorescence of bound diaphorase)” value stood at 2460, the “1 micro no FAD (array fluorescence of bound diaphorase)” value came to 6757, the “10 microM FAD (array fluorescence of bound diaphorase)” value came out at 27275.5 and the “10 microM no FAD (array fluorescence of bound diaphorase)” value was 57203.5. For the same sequence, the “1 microM noFAD/FAD” value is 2.747, the “10 microM noFAD/FAD” value is 2.097 and the Meas. ratio was 2.75.
Regarding “EDEGLSKFEGGSG [array peptide with C-terminal GSG linker]”, the “1 microM FAD (array fluorescence of bound diaphorase)” value is 4165.5, the “1 micro no FAD (array fluorescence of bound diaphorase)” value turned out to be 560.55, the “10 microM FAD (array fluorescence of bound diaphorase)” value is on record as 1378.5 and the “10 microM no FAD (array fluorescence of bound diaphorase)” value was 1220.25. The “1 microM noFAD/FAD” value came to 0.1346, the “10 microM noFAD/FAD” value came out at 0.8852 and the Meas. ratio is on record as 0.13.
“YRPYGPVYNGGSG [array peptide with C-terminal GSG linker]”: the “1 microM FAD (array fluorescence of bound diaphorase)” value was 6762.5, the “1 micro no FAD (array fluorescence of bound diaphorase)” value was found to be 18709.5, the “10 microM FAD (array fluorescence of bound diaphorase)” value worked out at 65535 and the “10 microM no FAD (array fluorescence of bound diaphorase)” value came to 65535. Also, the “1 microM noFAD/FAD” value is recorded as 2.767, the “10 microM noFAD/FAD” value was 1 and the Meas. ratio is 2.77.
RVLPYHGWKWFSG: the Meas. ratio is recorded as 2.45.
For the sequence “RWKYQKFNGGSG [array peptide with C-terminal GSG linker]”, the “1 microM FAD (array fluorescence of bound diaphorase)” value amounted to 3860.75, the “1 micro no FAD (array fluorescence of bound diaphorase)” value is 10165, the “10 microM FAD (array fluorescence of bound diaphorase)” value was 46173.5 and the “10 microM no FAD (array fluorescence of bound diaphorase)” value was 61301.5. The “1 microM noFAD/FAD” value is on record as 2.633, the “10 microM noFAD/FAD” value is listed as 1.328 and the Meas. ratio was 2.63.
On to “PRFNWKPYGGSG [array peptide with C-terminal GSG linker]”, for which the Meas. ratio is reported as 2.44.
Consider “NVSDLSQFYLSGSG [array peptide with C-terminal GSG linker]”, for which the “1 microM FAD (array fluorescence of bound diaphorase)” value was found to be 3436.25, the “1 micro no FAD (array fluorescence of bound diaphorase)” value was 2144.5, the “10 microM FAD (array fluorescence of bound diaphorase)” value was determined as 27800.25 and the “10 microM no FAD (array fluorescence of bound diaphorase)” value amounted to 6739. The “1 microM noFAD/FAD” value is 0.6241, the “10 microM noFAD/FAD” value was found to be 0.2424 and the Meas. ratio was 0.62.
For “EGYANKLLALFSGSG [array peptide with C-terminal GSG linker]”, the “1 microM FAD (array fluorescence of bound diaphorase)” value was found to be 1727, the “1 micro no FAD (array fluorescence of bound diaphorase)” value is listed as 1034, the “10 microM FAD (array fluorescence of bound diaphorase)” value is on record as 10408.25 and the “10 microM no FAD (array fluorescence of bound diaphorase)” value is given as 6648. Also, the “1 microM noFAD/FAD” value is on record as 0.5987, the “10 microM noFAD/FAD” value stood at 0.6387 and the Meas. ratio is listed as 0.60.
For the sequence “SVLEGYQAVFGGSG [array peptide with C-terminal GSG linker]”, the “1 microM FAD (array fluorescence of bound diaphorase)” value turned out to be 2664.5, the “1 micro no FAD (array fluorescence of bound diaphorase)” value turned out to be 1341.5, the “10 microM FAD (array fluorescence of bound diaphorase)” value was 21517.25 and the “10 microM no FAD (array fluorescence of bound diaphorase)” value is listed as 6065.25. Moreover, the “1 microM noFAD/FAD” value stood at 0.5035, the “10 microM noFAD/FAD” value is listed as 0.2819 and the Meas. ratio is 0.50.
Turning to ALDKLSGLWKHVG, the Meas. ratio is recorded as 0.69.
On the same count and under the same terms, the result for YQRHQNVFAKSGG reads 2.56; that for “AFNVWQYFEGGSG [array peptide with C-terminal GSG linker]”, 0.73.
As for “ARWQQYKFGGSG [array peptide with C-terminal GSG linker]”, the Meas. ratio is 2.18.
As to “RFKYPLDGGSG [array peptide with C-terminal GSG linker]”, the “1 microM FAD (array fluorescence of bound diaphorase)” value is recorded as 2199.25, the “1 micro no FAD (array fluorescence of bound diaphorase)” value is 5764.75, the “10 microM FAD (array fluorescence of bound diaphorase)” value worked out at 30389 and the “10 microM no FAD (array fluorescence of bound diaphorase)” value is given as 55899.25. For the same sequence, the “1 microM noFAD/FAD” value was 2.621, the “10 microM noFAD/FAD” value turned out to be 1.839 and the Meas. ratio is listed as 2.62.
Regarding “YRNAAWFSGGSG [array peptide with C-terminal GSG linker]”, the “1 microM FAD (array fluorescence of bound diaphorase)” value was 2926, the “1 micro no FAD (array fluorescence of bound diaphorase)” value is 8372.25, the “10 microM FAD (array fluorescence of bound diaphorase)” value was found to be 43282 and the “10 microM no FAD (array fluorescence of bound diaphorase)” value stood at 65535. The “1 microM noFAD/FAD” value worked out at 2.861, the “10 microM noFAD/FAD” value is recorded as 1.514 and the Meas. ratio was 2.86.
On to FYNFGYQDLEDGS, for which the Meas. ratio is given as 0.75.
On the same count and under the same terms, to LFDNVLEFVEDGS belongs 0.69.
For the sequence “WRLNPLQFGGSG [array peptide with C-terminal GSG linker]”, the Meas. ratio is 2.54.

These data come from patent US20190064177A1, “INCORPORATING COMPETITIVE BINDING INFORMATION INTO MOLECULAR ARRAY ANALYSIS TO GENERATE FUNCTION NETWORKS OF INTERACTIONS” (ARIZONA BOARD OF REGENTS ON BEHALF OF ARIZONA STATE …, priority 2017, published 2019).
